According to patent US8017321B2, “Gefitinib sensitivity-related gene expression and products and methods related thereto” (The Regents of the University of Colorado, A Body Corporate, priority 2005, dated 2011):

Experiments:
[1] = system: A549 NSCLC xenografts; assay: Athymic nude mice bearing human NSCLC xenografts (FIG. 5); assay type: in vivo
From the text: FIG. 5 is a line graph showing the effects of gefitinib on A549 NSCLC xenografts.

[2] = system: NSCLC; details: chemo-refractory advanced stage NSCLC, phase II clinical trials; cited from earlier work

COc1cc2ncnc(Nc3ccc(F)c(Cl)c3)c2cc1OCCCN1CCOCC1 [ZD 1839, gefitinib]
tumor growth of NSCLC xenografts after treatment ([1]; listed as ZD1839): Growth delay was evident | tumor growth of NSCLC xenografts after treatment ([1]; listed as gefitinib): inhibitory effect | patients responding to treatment [2]: 11-20%
